Test results reported in patent publication US7166744B2, “Retinoid derivatives and methods for producing said compounds and anti-cancer pharmaceutical composition comprising said compounds” (Chebigen Co., Ltd., priority 2001, dated 2007).

Test system: various cancer cells
Test: MTT proliferation assay, summary over various cancer cells
Format: cell-based
Conditions: Table 2
Description: The effects of test compounds on proliferation of various cancer cells was examined by 3-(4,5-dimethylthiazol-2-yl)-2,5-diphenyltetrazolium bromide (MTT, Sigma) assay in a dose dependent manner. In the MTT assay, colon, liver, cervix, ovary, and breast cancer cell lines were treated with test compounds at various concentrations. Living cancer cells reduce MTT to dark blue MTT formazan that would be measured by absorbance.
Colon cancer cells, HCT116, DLD-1 and HT29, cervix cancer cells, HeLa and CaSki, ovary cancer cells, SKOV-3, 2774 and OVCAR-3, liver cancer cells, SK-Hep-1, PLCPRF5 and HepG2, and breast cancer cells, ZR75-1 and MDA-MB 231 were seeded at an initial density of 3000 cells per well in 96-well plates. After attachment of cells to the walls of the wells, the medium containing fresh retinoid was treated with various concentrations (0.5 μM, 1 μM, 2.5 μM, 5 μM, 10 μM) for 48 hours. 50 μl of MTT solution (2 mg/ml in PBS) was added to cell culture media. The reaction micture was incubated at 37° C. in a 5% CO2 atmosphere for 4 hours. The supernatant was removed and 150 μl of DMSO was added. The optical density was measured spectrophotometrically at 550 nm. […] For other retinoid derivatives according to the present invention, absorbances were measured by this procedure and IC50 values, concentrations required for 50% growth inhibition, were determined.

CC1=C(/C=C/C(C)=C/C=C/C(C)=C/C(=O)O)C(C)(C)CCC1 [ATRA, All-trans-retinoic acid, reference compound]
anti-cancer activity in cells other than HepG: very a low anti-cancer activity
